The test system of one series is murine polyomavirus. The experiment in a line: microbe, parasite or virus in culture. In kind it is cell-based. The note with it: Alphapolyomavirus muris, UC1, UC1B.
A short description of another series: in vitro. As to conditions: human.
Series [1] relates to Molluscum contagiosum virus (MCV) clinical isolates. Description: microbe, parasite or virus in culture. It counts as cell-based. The note with it: Keratinocyte.
The next series deals with Vaccinia virus. Description: organism not typed. It counts as cell-based. The note with it: for EC50: HEL.
The next series deals with MOLT-3 cells. As to conditions: human.
Series [2] concerns Herpes simplex virus-1 (KOS and TK- KOS ACVr). It counts as cell-based.
The test system of the next series is Vaccinia Virus (WR). It counts as in vivo, mice. As to conditions: after 20 days.
In series [3] the test system is human cervical carcinoma xenografts (HeLa, CaSki cells). Description: Human cervical carcinoma xenografts (HeLa, CaSki) in athymic nude mice, FIG. 12. The note with it: 5 and 10 mg/mL doses, intratumoral. In kind it is in vivo. As for the experimental part:
FIGS. 12 A and B show the activity of (S)-HPMP-5-azacytosine compared to (S)-HPMPC against human papillomavirus in human cervical carcinoma xenografts in athymic nude mice. (A) Adult animals were injected subcutaneously with 5×10^6 HeLa cells, a human cervical carcinoma cell line which harbors integrated human papillomavirus […]. Once the tumors were established (approximately after 1 week), the mice were divided in several groups, the tumor size for each mouse was determined, and treatment with placebo (PBS) or the test compounds was started. The test solutions were administered intratumorally at a volume of 50 μl. Mice were treated once a day, 5 times a week for a period of 5 weeks. Every week, the tumor size for each animal was measured with a caliper in two perpendicular dimensions and tumor size was calculated by multiplying the two measured diameters. […] Once the tumors were established (approximately after 1 week), the mice were divided in several groups, the tumor size for each mouse was determined, and treatment with placebo (PBS) or the test compounds was started. […] Every week, the tumor size for each animal was measured with a caliper in two perpendicular dimensions and tumor size was calculated by multiplying the two measured diameters.

Structures are written as SMILES. In brackets after ≈: the same amount, converted by molar mass. Where two headings read alike, the source gives them in different places.

From US8153787B2 (priority 2005, dated 2012) come the findings set out here.

In the case of `Nc1ncn(C[C@@H](CO)OCP(=O)(O)O)c(=O)n1` [Compound 3, (S)-1-[3-hydroxy-2-(Phosphonomethoxy)propyl]-5-azacytosine], the EC50 in the series on murine polyomavirus (read-out: antiviral activity (EC50) 2PTA2) amounted to 3.35 µg/mL (≈ 12 µM); in the series with murine polyomavirus (read-out: antiviral activity (EC50) LID-1), 4.98 µg/mL (≈ 17.8 µM); with murine polyomavirus (read-out: antiviral activity (EC50) MN/RDE Toronto), 1.94 µg/mL (≈ 6.92 µM); in the series with murine polyomavirus (read-out: antiviral activity (EC50) PTA), 3.89 µg/mL (≈ 13.9 µM); in series [1] (read-out: EC50 MCV 06/02), 0.4 µg/mL (≈ 1.43 µM); in series [1] (read-out: EC50 MCV 06/03), 0.23 µg/mL (≈ 0.821 µM). The EC50 worked out at 0.4 µg/mL (≈ 1.43 µM) in series [1] (read-out: EC50 MCV 06/04); 1.26 µg/mL (≈ 4.5 µM) in series [1] (read-out: EC50 MCV 06/06); 1.69 µg/mL (≈ 6.03 µM) with Vaccinia virus (read-out: EC50 Vaccinia Virus Lister); 2.26 µg/mL (≈ 8.07 µM) with Vaccinia virus (Orthopoxvirus vaccinia, read-out: EC50 Vaccinia Virus Copenhagen); 1.7 µg/mL (≈ 6.07 µM) in the series on Vaccinia virus (Orthopoxvirus vaccinia, read-out: EC50 Vaccinia Virus Lederle); 2.45 µg/mL (≈ 8.74 µM) in the series with Vaccinia virus (Orthopoxvirus vaccinia, read-out: EC50 Vaccinia Virus WR). For the same compound, in the series “in vitro”, the CC50 is above 100 µg/mL. For the same compound, the “activity against Vaccinia virus (Lederle, Lister, W R and Copenhagen) in HEL cells” value in the series with Vaccinia virus is listed as “significant activity”. Further, the “Toxicity MCC (microscopy), MOLT-3 cells” value with MOLT-3 cells amounted to 16 µg/mL. Further, in series [2], the “activity against Herpes simplex virus-1 (KOS and TK- KOS ACVr) in E6SM cell cultures” value was “significant activity”. For the same compound, the “survival, Vaccinia Virus (WR) mice model” value in the series on Vaccinia Virus (WR) amounted to 100%. Also, the “growth of tumors, human cervical carcinoma (FIG. 12)” value in series [3] is “inhibit the growth of tumors”.
